Reference: patent publication US20220378706A1, “PHARMACEUTICAL COMPOSITION COMPRISING PDE9 INHIBITOR” (Eisai R&D Management Co., Ltd., priority 2017, published 2022)
Where two headings read alike, the source gives them in different places.

Test: Single dose clinical study: plasma Compound A pharmacokinetics
Assay type: in vivo, human
Settings: human, plasma
Protocol: This was a single center, single dose, randomized, double blind, placebo controlled study in healthy subjects. It consisted of 4 parts: Parts A, B, C, and D. Each of the four study parts had 2 phases: Prerandomization Phase and Randomization Phase. The Prerandomization Phase lasted up to 30 days and consisted of a Screening Period and a Baseline Period, during which each subject's study eligibility was determined and baseline assessments were performed.
In Part A, there were 8 sequential cohorts of healthy adult subjects (18-50 years of age). Subjects were randomly assigned to Compound A or placebo in a ratio of 6:2, respectively. Subjects in the Compound A cohorts were treated with single ascending doses of 10, 25, 50, 100, 200, 400, 800, or 1200 mg.
In Part B, there were 4 cohorts of healthy adult subjects (18-50 years of age). There were 8 subjects in Cohort 1, with 6 subjects randomly assigned to receive single doses of Compound A (400 mg) and 2 subjects randomly assigned to receive placebo. There were 7 subjects in Cohort 2 and Cohort 3, each with 6 subjects randomly assigned to receive single doses of Compound A (100 and 200 mg, respectively) and 1 subject randomly assigned to receive placebo. The dose of 100 mg selected in Cohort 2 was based on preliminary analysis of Cohort 1 data; this dose was predicted from PK/PD modeling to achieve a sustained CSF cGMP increase from baseline of approximately 200% when administered to steady state, and thereby provided a potentially therapeutic dose for further evaluation in future studies. There were 7 subjects in Cohort 4, with 6 subjects randomly assigned to receive a single dose of Compound A (50 mg [n=3] or 75 mg [n=3]) and 1 subject randomly assigned to receive placebo. The doses for Cohorts 3 and 4 were selected based on PK/PD modeling of the data in Cohorts 1 and 2.
Subjects in Cohort 2 who had received Compound A 100 mg or placebo under fasted conditions (1st Treatment Period) also participated in an evaluation of food effect on the PK of Compound A (2nd Treatment Period). After a washout period of at least 13 days (or 5 half-lives of Compound A, whichever was longer), subjects were admitted to the clinic for baseline assessments (2nd Baseline Period) and then received a single dose of the same treatment (Compound A 100 mg or placebo) after consuming a high fat and high calorie meal over 30 minutes. Blood PK samples were collected at prespecified time points. Safety evaluations were also assessed. CSF was not collected for PD evaluation during the 2nd Treatment Period. A Follow Up Visit occurred on Day 10 of Treatment Period 2.
In Part C, there was 1 cohort of 8 healthy elderly subjects (65 to 85 years of age) randomly assigned to receive a single dose of Compound A 100 mg or placebo in a ratio of 6:2, respectively.
In Part D, 3 cohorts of healthy adult Japanese subjects were randomized in parallel. There were 7 subjects in each cohort and subjects were randomly assigned to receive single doses of Compound A (25, 100, or 400 mg) or placebo in a ratio of 6:1, respectively.
Blood samples for determination of plasma Compound A concentrations were collected from predose to 216 hours postdose. On Day 1, blood PK samples were collected at predose and postdose 0.5 (30 minutes), 1, 1.5, 2, 3, 4, 5, 6, 8, 12, and 18 hours. Thereafter, samples were collected on Day 2 (24 and 36 hours postdose), Day 3 (48 hours postdose), Day 4 (72 hours postdose), Day 5 (96 hours postdose), Day 6 (120 hours postdose), Day 7 (144 hours postdose), and Day 10 (216 hours postdose).
Blood samples for determination of plasma Compound A concentrations were collected from predose to 216 hours postdose. For all cohorts, blood PK samples were collected on Day 1 at predose and postdose at 0.5 (30 minutes), 1, 1.5, 2, 3, 4, 5, 6, 8, 10, 12, and 18 hours. […]

**Q.** For `COc1ncc(C)c(-c2ccc3c(c2)[nH]c(=O)c2cnn([C@H]4CCOC4)c23)c1C` [Compound A, (S)-7-(2-methoxy-3,5-dimethylpyridin-4-yl)-1-(tetrahydrofuran-3-yl)-1H-pyrazolo[4,3-c]quin olin-4(5H)-one], which Cmax (oral, 400 mg, non-Japanese, 400 mg, with weight as covariate, read-out: Cmax Geometric LS Means Reference) is on record?
**A.** 833 ng/mL

**Q.** And the AUC (oral, 400 mg, non-Japanese, 400 mg, without weight as covariate, read-out: AUC(O-inf) Geometric LS Means Reference)?
**A.** 35800 ng·h/mL

**Q.** What about the Cmax (oral, 400 mg, non-Japanese, 400 mg, without weight as covariate, read-out: Cmax Geometric LS Means Reference) of the same molecule?
**A.** 827 ng/mL

**Q.** What about the half-life (oral, single doses of 10 to 1200 mg, read-out: Mean t1/2 across all doses) of the same molecule?
**A.** 26.8 to 33.6 h

**Q.** What about the Tmax (oral, single doses of 10 to 1200 mg, read-out: median plasma tmax across all doses) of the same molecule?
**A.** 2 to 4 h

**Q.** What about the AUC(0-t) (po, 10 mg, healthy adults (Parts A,B), single oral 10 mg, fasted, read-out: AUC(0-24 h) GM) of the same molecule?
**A.** 719 ng·h/mL

**Q.** What about the AUC(0-t) (po, 10 mg, healthy adults (Parts A,B), single oral 10 mg, fasted, read-out: AUC(0-30 h) GM) of the same molecule?
**A.** 863 ng·h/mL

**Q.** And the AUC(0-t) (po, 10 mg, healthy adults (Parts A,B), single oral 10 mg, fasted, read-out: AUC(0-72 h) GM)?
**A.** 1430 ng·h/mL

**Q.** What about the AUC(0-inf) (po, 10 mg, healthy adults (Parts A,B), single oral 10 mg, fasted, read-out: AUC(0-inf) GM) of the same molecule?
**A.** 1840 ng·h/mL

**Q.** What about the AUC(0-t) (po, 10 mg, healthy adults (Parts A,B), single oral 10 mg, fasted, read-out: AUC(0-t) GM) of the same molecule?
**A.** 1700 ng·h/mL

**Q.** And the Cmax (po, 10 mg, healthy adults (Parts A,B), single oral 10 mg, fasted, read-out: Cmax GM)?
**A.** 60.2 ng/mL

**Q.** And the Vd/F (po, 10 mg, healthy adults (Parts A,B), single oral 10 mg, fasted, read-out: Vz/F GM)?
**A.** 255 L

**Q.** What about the half-life (po, 10 mg, healthy adults (Parts A,B), single oral 10 mg, fasted, read-out: t1/2 Mean (converted)) of the same molecule?
**A.** 33.6 h

**Q.** And the Tmax (po, 10 mg, healthy adults (Parts A,B), single oral 10 mg, fasted, read-out: tmax Median)?
**A.** 2.27 h

**Q.** What about the AUC(0-inf) (po, 25 mg, Japanese Subjects (Part D), single oral 25 mg, read-out: AUC(0-inf) GM) of the same molecule?
**A.** 4580 ng·h/mL

**Q.** And the Cmax (po, 25 mg, Japanese Subjects (Part D), single oral 25 mg, read-out: Cmax GM (% CV))?
**A.** 212 ng/mL

**Q.** And the Vd/F (po, 25 mg, Japanese Subjects (Part D), single oral 25 mg, read-out: Vz/F GM (% CV))?
**A.** 165 L

**Q.** And the half-life (po, 25 mg, Japanese Subjects (Part D), single oral 25 mg, read-out: t1/2 Mean (SD) (converted))?
**A.** 21.5 h

**Q.** What about the Tmax (po, 25 mg, Japanese Subjects (Part D), single oral 25 mg, read-out: tmax Median) of the same molecule?
**A.** 2.08 h

**Q.** What about the AUC(0-inf) (po, 25 mg, Non-Japanese Subjects (Parts A,B), single oral 25 mg, read-out: AUC(0-inf) GM) of the same molecule?
**A.** 4340 ng·h/mL

**Q.** And the Cmax (po, 25 mg, Non-Japanese Subjects (Parts A,B), single oral 25 mg, read-out: Cmax GM (% CV))?
**A.** 152 ng/mL

**Q.** What about the Vd/F (po, 25 mg, Non-Japanese Subjects (Parts A,B), single oral 25 mg, read-out: Vz/F GM (% CV)) of the same molecule?
**A.** 216 L

**Q.** And the half-life (po, 25 mg, Non-Japanese Subjects (Parts A,B), single oral 25 mg, read-out: t1/2 Mean (SD) (converted))?
**A.** 26.8 h

**Q.** What about the Tmax (po, 25 mg, Non-Japanese Subjects (Parts A,B), single oral 25 mg, read-out: tmax Median) of the same molecule?
**A.** 2.65 h

**Q.** And the AUC(0-t) (po, 25 mg, healthy adults (Parts A,B), single oral 25 mg, fasted, read-out: AUC(0-24 h) GM)?
**A.** 1850 ng·h/mL

**Q.** And the AUC(0-t) (po, 25 mg, healthy adults (Parts A,B), single oral 25 mg, fasted, read-out: AUC(0-30 h) GM)?
**A.** 2200 ng·h/mL

**Q.** And the AUC(0-t) (po, 25 mg, healthy adults (Parts A,B), single oral 25 mg, fasted, read-out: AUC(0-72 h) GM)?
**A.** 3570 ng·h/mL

**Q.** And the AUC(0-inf) (po, 25 mg, healthy adults (Parts A,B), single oral 25 mg, fasted, read-out: AUC(0-inf) GM)?
**A.** 4340 ng·h/mL

**Q.** And the AUC(0-t) (po, 25 mg, healthy adults (Parts A,B), single oral 25 mg, fasted, read-out: AUC(0-t) GM)?
**A.** 4200 ng·h/mL

**Q.** What about the Cmax (po, 25 mg, healthy adults (Parts A,B), single oral 25 mg, fasted, read-out: Cmax GM) of the same molecule?
**A.** 152 ng/mL

**Q.** And the Vd/F (po, 25 mg, healthy adults (Parts A,B), single oral 25 mg, fasted, read-out: Vz/F GM)?
**A.** 216 L

**Q.** And the half-life (po, 25 mg, healthy adults (Parts A,B), single oral 25 mg, fasted, read-out: t1/2 Mean (converted))?
**A.** 26.8 h

**Q.** And the Tmax (po, 25 mg, healthy adults (Parts A,B), single oral 25 mg, fasted, read-out: tmax Median)?
**A.** 2.65 h

**Q.** And the AUC(0-t) (po, 50 mg, healthy adults (Parts A,B), single oral 50 mg, fasted, read-out: AUC(0-24 h) GM)?
**A.** 3370 ng·h/mL

**Q.** What about the AUC(0-t) (po, 50 mg, healthy adults (Parts A,B), single oral 50 mg, fasted, read-out: AUC(0-30 h) GM) of the same molecule?
**A.** 4010 ng·h/mL

**Q.** What about the AUC(0-t) (po, 50 mg, healthy adults (Parts A,B), single oral 50 mg, fasted, read-out: AUC(0-72 h) GM) of the same molecule?
**A.** 6490 ng·h/mL

**Q.** What about the AUC(0-inf) (po, 50 mg, healthy adults (Parts A,B), single oral 50 mg, fasted, read-out: AUC(0-inf) GM) of the same molecule?
**A.** 7900 ng·h/mL

**Q.** And the AUC(0-t) (po, 50 mg, healthy adults (Parts A,B), single oral 50 mg, fasted, read-out: AUC(0-t) GM)?
**A.** 7720 ng·h/mL

**Q.** What about the Cmax (po, 50 mg, healthy adults (Parts A,B), single oral 50 mg, fasted, read-out: Cmax GM) of the same molecule?
**A.** 225 ng/mL

**Q.** And the Vd/F (po, 50 mg, healthy adults (Parts A,B), single oral 50 mg, fasted, read-out: Vz/F GM)?
**A.** 233 L

**Q.** What about the half-life (po, 50 mg, healthy adults (Parts A,B), single oral 50 mg, fasted, read-out: t1/2 Mean (converted)) of the same molecule?
**A.** 26.9 h

**Q.** And the Tmax (po, 50 mg, healthy adults (Parts A,B), single oral 50 mg, fasted, read-out: tmax Median)?
**A.** 4 h

**Q.** What about the AUC(0-t) (po, 75 mg, healthy adults (Parts A,B), single oral 75 mg, fasted, read-out: AUC(0-24 h) GM) of the same molecule?
**A.** 3650 ng·h/mL

**Q.** And the AUC(0-t) (po, 75 mg, healthy adults (Parts A,B), single oral 75 mg, fasted, read-out: AUC(0-30 h) GM)?
**A.** 4460 ng·h/mL

**Q.** And the AUC(0-t) (po, 75 mg, healthy adults (Parts A,B), single oral 75 mg, fasted, read-out: AUC(0-72 h) GM)?
**A.** 7880 ng·h/mL

**Q.** And the AUC(0-inf) (po, 75 mg, healthy adults (Parts A,B), single oral 75 mg, fasted, read-out: AUC(0-inf) GM)?
**A.** 9880 ng·h/mL

**Q.** And the AUC(0-t) (po, 75 mg, healthy adults (Parts A,B), single oral 75 mg, fasted, read-out: AUC(0-t) GM)?
**A.** 9520 ng·h/mL

**Q.** What about the Cmax (po, 75 mg, healthy adults (Parts A,B), single oral 75 mg, fasted, read-out: Cmax GM) of the same molecule?
**A.** 222 ng/mL

**Q.** And the Vd/F (po, 75 mg, healthy adults (Parts A,B), single oral 75 mg, fasted, read-out: Vz/F GM)?
**A.** 308 L

**Q.** What about the half-life (po, 75 mg, healthy adults (Parts A,B), single oral 75 mg, fasted, read-out: t1/2 Mean (converted)) of the same molecule?
**A.** 28.9 h

**Q.** What about the Tmax (po, 75 mg, healthy adults (Parts A,B), single oral 75 mg, fasted, read-out: tmax Median) of the same molecule?
**A.** 3 h

**Q.** What about the AUC(0-inf) (po, 100 mg, Elderly, single oral 100 mg, read-out: AUC(0-inf) Geometric LS Means Test) of the same molecule?
**A.** 21300 ng·h/mL

**Q.** What about the Cmax (po, 100 mg, Elderly, single oral 100 mg, read-out: Cmax Geometric LS Means Test) of the same molecule?
**A.** 543 ng/mL

**Q.** What about the AUC(0-inf) (po, 100 mg, Younger Adults (Parts A,B), single oral 100 mg, read-out: AUC(0-inf) Geometric LS Means Reference) of the same molecule?
**A.** 15000 ng·h/mL

**Q.** And the Cmax (po, 100 mg, Younger Adults (Parts A,B), single oral 100 mg, read-out: Cmax Geometric LS Means Reference)?
**A.** 373 ng/mL

**Q.** And the AUC(0-inf) (po, 100 mg, Japanese Subjects (Part D), single oral 100 mg, read-out: AUC(0-inf) GM)?
**A.** 14200 ng·h/mL
